In patent US20110224210A1, “NOVEL BIS-AMIDES AS ANTI-MALARIAL AGENTS” (priority 2008, published 2011) one finds IC50 data, which are given here for 24 compounds.

The IC50 is the concentration that gives 50% inhibition.

The assay concerns P. falciparum K1 (strain resistant to chloroquine and pyrimethamine), erythrocytic stages. Briefly: Plasmodium falciparum in vitro assay, [3H] hypoxanthine incorporation. Type of assay: cell-based. Conditions: Plasmodium falciparum, K1, P. falciparum strain K1; [3H] hypoxanthine incorporation; read-out: IC50 (nM) on K1. The method, then: In Vitro Antimalarial Activity: Plasmodium falciparum In Vitro Assay
In vitro activity against erythrocytic stages of P. falciparum is determined using a [^3H] hypoxanthine incorporation assay. One strain resistant to chloroquine and pyrimethamine (P. falciparum K1) is used in the assays, and all test compounds are compared for activity with the standard drugs chloroquine (sigma C6628) and artemisinin (sigma-36, 159-3). Compounds are diluted in DMSO to 1 mM and added to parasite cultures incubated in RPMI 1640 medium without hypoxanthine, supplemented with HEPES (5.94 g/L), NaHCO3 (2.1 g/L), neomycin (100 U/mL), Albumax (5 g/L) and washed human red cells at 2.5% haematocrit (0.3% parasitaemia). Seven serial doubling dilutions of each compound are prepared in 96-well microtitre plates and incubated in a humidifying atmosphere at 37° C.; 4% CO2, 3% O2, 93% N2.
After 48 h, 50 μl of [3H] hypoxanthine (0.5 μCi) is added to each well of a plate. The plates are incubated for a further 24 h under the same conditions. The plates are then harvested with a Betaplate cell harvester (Wallac) and washed with distilled water. The dried filters are inserted into a plastic foil with 10 mL of scintillation fluid, and counted in a Betaplate liquid scintillation counter. IC50 values are calculated from sigmoidal inhibition curves using Microsoft Excel.

For the compound `CC(=O)N1CCN(c2ccc(CN(C(=O)C=Cc3c(C)nn(C)c3C)[C@@H](Cc3ccccc3)C(=O)N3CCC(N(C)C)CC3)cc2)CC1` [Example 33, (S)-N-[4-(4-Acetyl-piperazin-1-yl)-benzyl]-N-[1-benzyl-2-(4-dimethylamino-piperidin-1-yl)-2-oxo-ethyl]-3-(1,3,5-trimethyl-1H-pyrazol-4-yl)-acrylamide], the IC50 worked out at 319 nM.
Take `COc1ccc(C=CC(=O)N(Cc2ccc(N3CCN(C(C)=O)CC3)cc2)[C@@H](Cc2ccccc2)C(=O)N2CCC(N(C)C)CC2)cn1` [Example 34, (S)-N-[4-(4-Acetyl-piperazin-1-yl)-benzyl]-N-[1-benzyl-2-(4-dimethylamino-piperidin-1-yl)-2-oxo-ethyl]-3-(6-methoxy-pyridin-3-yl)-acrylamide]: the IC50 was found to be 433 nM.
`CC(=O)N1CCN(c2ccc(CN(C(=O)C=Cc3ccc(C(F)(F)F)cn3)[C@@H](Cc3ccccc3)C(=O)N3CCC(N(C)C)CC3)cc2)CC1` [Example 35, (S)-N-[4-(4-Acetyl-piperazin-1-yl)-benzyl]-N-[1-benzyl-2-(4-dimethylamino-piperidin-1-yl)-2-oxo-ethyl]-3-(5-trifluoromethyl-pyridin-2-yl)-acrylamide]: the IC50 was 317 nM.
Under `Cc1nn(C)c(C)c1C=CC(=O)N(Cc1ccc(-c2cncnc2)cc1)[C@@H](Cc1ccccc1)C(=O)N1CCC(N(C)C)CC1` [Example 36, (S)-N-[1-Benzyl-2-(4-dimethylamino-piperidin-1-yl)-2-oxo-ethyl]-N-(4-pyrimidin-5-yl-benzyl)-3-(1,3,5-trimethyl-1H-pyrazol-4-yl)-acrylamide] stands 173 nM.
Turning to `Cc1nc(C)c(C=CC(=O)N(Cc2ccc(-c3cncnc3)cc2)[C@@H](Cc2ccccc2)C(=O)N2CCC(N(C)C)CC2)s1` [Example 37, (S)-N-[1-Benzyl-2-(4-dimethylamino-piperidin-1-yl)-2-oxo-ethyl]-3-(2,4-dimethyl-thiazol-5-yl)-N-(4-pyrimidin-5-yl-benzyl)-acrylamide], the IC50 was determined as 279 nM.
Take `Cc1noc(C)c1C=CC(=O)N(Cc1ccc(-c2cncnc2)cc1)[C@@H](Cc1ccccc1)C(=O)N1CCC(N(C)C)CC1` [Example 38, (S)-N-[1-Benzyl-2-(4-dimethylamino-piperidin-1-yl)-2-oxo-ethyl]-3-(3,5-dimethyl-isoxazol-4-yl)-N-(4-pyrimidin-5-yl-benzyl)-acrylamide]: the IC50 was determined as 417 nM.
Turning to `CN(C)C1CCN(C(=O)[C@H](Cc2ccccc2)N(Cc2ccc(-c3cncnc3)cc2)C(=O)C=Cc2ccc(Cl)cn2)CC1` [Example 39, (S)-N-[1-Benzyl-2-(4-dimethylamino-piperidin-1-yl)-2-oxo-ethyl]-3-(5-chloro-pyridin-2-yl)-N-(4-pyrimidin-5-yl-benzyl)-acrylamide], the IC50 stood at 170 nM.
On to `CN(C)C1CCN(C(=O)[C@H](Cc2ccccc2)N(Cc2ccc(-c3cncnc3)cc2)C(=O)C=Cc2ccc(Cl)nc2)CC1` [Example 40, (S)-N-[1-Benzyl-2-(4-dimethylamino-piperidin-1-yl)-2-oxo-ethyl]-3-(6-chloro-pyridin-3-yl)-N-(4-pyrimidin-5-yl-benzyl)-acrylamide], for which the IC50 was 490 nM.
The same measure for `COc1ccc(C=CC(=O)N(Cc2ccc(-c3cncnc3)cc2)[C@@H](Cc2ccccc2)C(=O)N2CCC(N(C)C)CC2)cn1` [Example 41, (S)-N-[1-Benzyl-2-(4-dimethylamino-piperidin-1-yl)-2-oxo-ethyl]-3-(6-methoxy-pyridin-3-yl)-N-(4-pyrimidin-5-yl-benzyl)-acrylamide]: 169 nM.
Consider `CN(C)C1CCN(C(=O)[C@H](Cc2ccccc2)N(Cc2ccc(-c3cncnc3)cc2)C(=O)C=Cc2ccc(C(F)(F)F)cn2)CC1` [Example 42, (S)-N-[1-Benzyl-2-(4-dimethylamino-piperidin-1-yl)-2-oxo-ethyl]-N-(4-pyrimidin-5-yl-benzyl)-3-(5-trifluoromethyl-pyridin-2-yl)-acrylamide], for which the IC50 is 104 nM.
Take `Cc1c(C=CC(=O)N(Cc2ccc(-c3cncnc3)cc2)[C@@H](Cc2ccccc2)C(=O)N2CCC(N(C)C)CC2)cnn1C` [Example 43, (S)-N-[1-Benzyl-2-(4-dimethylamino-piperidin-1-yl)-2-oxo-ethyl]-3-(1,5-dimethyl-1H-pyrazol-4-yl)-N-(4-pyrimidin-5-yl-benzyl)-acrylamide]: the IC50 turned out to be 354 nM.
For `O=C([C@H](Cc1ccccc1)N(Cc1ccccn1)C(=O)C=Cc1ccc(C(F)(F)F)cc1)N1CCC(Cc2ccccc2)CC1` [Example 44, (S)-N-[1-Benzyl-2-(4-benzyl-piperidin-1-yl)-2-oxo-ethyl]-N-pyridin-2-ylmethyl-3-(4-trifluoromethyl-phenyl)-acrylamide], the IC50 came out at 14 nM.
As to `O=C([C@H](Cc1ccccc1)N(Cc1ccccc1)C(=O)C=Cc1ccc(C(F)(F)F)cc1)N1CCC(Cc2ccccc2)CC1` [Example 45, (S)-N-Benzyl-N-[1-benzyl-2-(4-benzyl-piperidin-1-yl)-2-oxo-ethyl]-3-(4-trifluoromethyl-phenyl)-acrylamide], the IC50 was 4 nM.
On to `O=C([C@H](Cc1ccccc1)N(Cc1ccc(-c2ccccn2)cc1)C(=O)C=Cc1ccc(C(F)(F)F)cc1)N1CCC(Cc2ccccc2)CC1` [Example 46, (S)-N-[1-Benzyl-2-(4-benzyl-piperidin-1-yl)-2-oxo-ethyl]-N-(4-pyridin-2-yl-benzyl)-3-(4-trifluoromethyl-phenyl)-acrylamide], for which the IC50 came to 1 nM.
Consider `O=C([C@H](Cc1ccccc1)N(Cc1ccc(-c2cccnc2)cc1)C(=O)C=Cc1ccc(C(F)(F)F)nc1)N1CCC(Cc2ccccc2)CC1` [Example 47, (S)-N-[1-Benzyl-2-(4-benzyl-piperidin-1-yl)-2-oxo-ethyl]-N-(4-pyridin-3-yl-benzyl)-3-(6-trifluoromethyl-pyridin-3-yl)-acrylamide], for which the concentration for half-maximal inhibition (IC50) stood at 1 nM.
`O=C([C@H](Cc1ccccc1)N(Cc1ccccc1)C(=O)C=Cc1ccc(C(F)(F)F)nc1)N1CCC(Cc2ccccc2)CC1` [Example 48, (S)-N-Benzyl-N-[1-benzyl-2-(4-benzyl-piperidin-1-yl)-2-oxo-ethyl]-3-(6-trifluoromethyl-pyridin-3-yl)-acrylamide]: the IC50 was 8 nM.
Under `O=C([C@H](Cc1ccccc1)N(Cc1ccc(-c2ccccn2)cc1)C(=O)C=Cc1ccc(C(F)(F)F)nc1)N1CCC(c2ccccc2)CC1` [Example 50, (S)-N-[1-Benzyl-2-oxo-2-(4-phenyl-piperidin-1-yl)-ethyl]-N-(4-pyridin-2-yl-benzyl)-3-(6-trifluoromethyl-pyridin-3-yl)-acrylamide] stands 13 nM; under `CN(C)CC1CCN(C(=O)[C@H](Cc2ccccc2)N(Cc2ccc(-c3ccccn3)cc2)C(=O)C=Cc2ccc(C(F)(F)F)nc2)CC1` [Example 51, (S)-N-[1-Benzyl-2-(4-dimethylaminomethyl-piperidin-1-yl)-2-oxo-ethyl]-N-(4-pyridin-2-yl-benzyl)-3-(6-trifluoromethyl-pyridin-3-yl)-acrylamide], 90 nM.
As to `O=C([C@H](Cc1ccccc1)N(Cc1ccc(-c2ccccn2)cc1)C(=O)C=Cc1ccc(C(F)(F)F)cc1)N1CCC(CN2CCCC2)CC1` [Example 52, (S)-N-[1-Benzyl-2-oxo-2-(4-pyrrolidin-1-ylmethyl-piperidin-1-yl)-ethyl]-N-(4-pyridin-2-yl-benzyl)-3-(4-trifluoromethyl-phenyl)-acrylamide], the IC50 stood at 92 nM.
Under `CN(C)[C@@H]1CCN(C(=O)[C@H](Cc2ccccc2)N(Cc2ccc(-c3ccccn3)cc2)C(=O)C=Cc2ccc(C(F)(F)F)cc2)C1` [Example 53, N-[(S)-1-Benzyl-2-((R)-3-dimethylamino-pyrrolidin-1-yl)-2-oxo-ethyl]-N-(4-pyridin-2-yl-benzyl)-3-(4-trifluoromethyl-phenyl)-acrylamide] stands 14 nM; under `CN(C)[C@H]1CCN(C(=O)[C@H](Cc2ccccc2)N(Cc2ccc(-c3ccccn3)cc2)C(=O)C=Cc2ccc(C(F)(F)F)cc2)C1` [Example 54, N-[(S)-1-Benzyl-2-((S)-3-dimethylamino-pyrrolidin-1-yl)-2-oxo-ethyl]-N-(4-pyridin-2-yl-benzyl)-3-(4-trifluoromethyl-phenyl)-acrylamide], 17 nM; under `CN(C)[C@@H]1CCN(C(=O)[C@H](Cc2ccccc2)N(Cc2ccc(-c3ccccn3)cc2)C(=O)C=Cc2ccc(C(F)(F)F)nc2)C1` [Example 55, N-[(S)-1-Benzyl-2-((R)-3-dimethylamino-pyrrolidin-1-yl)-2-oxo-ethyl]-N-(4-pyridin-2-yl-benzyl)-3-(6-trifluoromethyl-pyridin-3-yl)-acrylamide], 65 nM.
For `CN(C)[C@H]1CCN(C(=O)[C@H](Cc2ccccc2)N(Cc2ccc(-c3ccccn3)cc2)C(=O)C=Cc2ccc(C(F)(F)F)nc2)C1` [Example 56, N-[(S)-1-Benzyl-2-((S)-3-dimethylamino-pyrrolidin-1-yl)-2-oxo-ethyl]-N-(4-pyridin-2-yl-benzyl)-3-(6-trifluoromethyl-pyridin-3-yl)-acrylamide], the IC50 came out at 58 nM.
For `O=C([C@H](Cc1ccccc1)N(Cc1ccc(-c2cncnc2)cc1)C(=O)C=Cc1ccc(C(F)(F)F)cc1)N1CCc2ccccc21` [Example 57, (S)-N-[1-Benzyl-2-(2,3-dihydro-indol-1-yl)-2-oxo-ethyl]-N-(4-pyrimidin-5-yl-benzyl)-3-(4-trifluoromethyl-phenyl)-acrylamide], the IC50 was determined as 89 nM.
